What was measured:
[1] = system: mice that were genetically altered to present symptoms of Alzheimer's disease (AD); assay: Modified Morris water maze in AD mice; type: in vivo; details: AD mice aged 13 months
Method: Another group, the control group, of 10 mice that were genetically altered to present symptoms of AD were fed a Control Diet, a diet of normal solid food and water, for 30 days.
The pool used was a pool of water in a circular metal tank (150 cm in diameter and 50 cm in depth) having a water height of 30 cm and a water temperature that was maintained at ˜22° C. The pool was placed in a moderately lit area and surrounded by a black curtain. An acrylic platform (15 cm in diameter) was placed 2 cm below the surface of the water in the middle of one quadrant of the pool, equidistant from the center and the edge of the pool. Outside the pool, a cue was placed so as to be visible to a mouse in the maze, allowing a mouse to use it as a landmark for spatial orientation. The cue remained unchanged throughout the test period.
On the first day of the training and testing period, the water in the pool was transparent, such that the platform was visible. Each mouse was trained to swim towards the platform and to stand on the platform so as not to be submerged in the pool. […] The amount of time the mouse took to find the platform, referred to as “escape latency,” was recorded for each trial.
On the second day of the training and testing period, a small quantity of milk was added to the water in the pool, such that the pool was opaque and the platform was no longer visible. […]

[2] = Magnesium absorption rate in rats (metabolic cages, urine and feces magnesium by ICP-AES); details: higher dosage compositions; magnesium chloride in water, magnesium gluconate in skim milk or water comprising 5 weight percent lactose
Method: Fifty 3-month old, male Sprague Dawley (SD) rats were divided into five groups of ten rats. Rats of this age and older are considered adult. Each of the rats was placed in a separate metabolic cage equipped with urine- and feces-collecting wells. All of the rats were maintained in a temperature-controlled room (22° C. to 25° C.) with a dark period from 08:00 pm to 08:00 am daily. From day 1 through day 3, each rat was fed daily 15 g of magnesium-free food and de-ionized water. […] The medium was skim milk for Composition 1 and Group 1, milk prepared from powdered milk, by diluting the powdered milk with water to obtain a composition like that of skim milk, for Composition 2 and Group 2, 1% milk cream in water for Composition 3 and Group 3, water comprising 5 weight percent lactose for Composition 4 and Group 4, and water for the Control Composition and Control Group. […]
From day 4 through day 10, urine from each rat was collected daily. The collected urine from each rat was then pooled together and the total volume of the pooled urine from each rat was recorded. The pooled urine from each rat, in an amount of […], was analyzed for magnesium content using an inductively coupled plasma-atomic emission spectrometer (ICP-AES). […] The pooled feces from each rat, in an amount of 0.5 g, were analyzed for magnesium content using an ICP-AES. […]

[3] = system: Sprague-Dawley rats; assay: Novel object recognition test in rats; type: in vivo
Method: In this example, the effect of magnesium supplementation on recognition memory was tested. Three groups of rats were used in these experiments: 1) young rats (three months old); aging rats (12-14 months old), and; 3) magnesium-treated aging rats (12-14 months old, diet supplemented with 6 mg/kg MgCl2 from 8 months of age). We used experimentally naive, female, Sprague-Dawley young […], aging (12-14 month old) and […] rats (Charles River) at the beginning of the behavior experiments. They were housed two per cage with continuous access to food and water under a 12:12 light-dark cycle, with light onset at 8:00 a.m. […] All experiments involving animals were approved by the Massachusetts Institute of Technology's and Tsinghua University Committees on Animal Care.
The three groups of rats were tested for recognition memory using an object recognition test with a single exposure to the object during training. The task is based on the natural tendency of rodents to explore new objects and tests the animals' memory capacity for distinguishing novel versus familiar objects.
Briefly, the rats were first individually habituated to the personnel and then to open-field arena during 2 weeks. […] The retention intervals were 10 min and 24 hours. Objects were cleaned thoroughly between trials with 20% ethanol solution to ensure the absence of olfactory cues. The particular objects for a given trial were randomly determined, but each object was used for only one trial per rat. Memory of the familiar object is associated with increased exploration of the new object and an exploration index (% correct) is calculated as new object inspection time/30.
In this example, the effect of magnesium supplementation on memory consolidation was studied. […]
Briefly, the rats were first individually habituated to the personnel and then to open-field arena during 2 weeks. […] The particular objects for a given trial were randomly determined, but each object was used for only one trial per rat. […]

[4] = system: Sprague Dawley (SD) rats; details: aging rats, 6 mg/kg MgCl2
Method: Twenty 2-month old, male Sprague Dawley (SD) rats were housed in a temperature-controlled room (22° C. to 25° C.) with a dark period from 08:00 pm to 08:00 am daily. […] Over 7 days before the training and trial period began, each rat was handled and habituated to the maze and to Kellogg's Froot Loop cereal.
Each rat underwent a test of one trial, followed by an interval of 10-minutes, followed by another trial, and so on, for a total of 6 trials in one day. In each trial, each rat went through a sample run in the maze, followed by an interval of 15 seconds, followed by a choice run in the maze. In the sample run, the subject rat was forced to go to the left or to the right by the presence of a block, according to a pseudorandom sequence (with an equal number of left turns and right turns, and no more than two consecutive turns in the same direction). As a reward, Froot Loop cereal was available in the food well at the end of the run, regardless of the direction that was taken by virtue of the block. In the choice run, the block that had been present in the preceding sample run was removed, and the rat was allowed to choose to go to the left or to the right. As a reward, Froot Loop cereal was available in the food well at the end of the run, only when the rat had made a “correct choice” by choosing the direction opposite that taken in the preceding sample run. […]
On the first day (designated day 0) of the feeding of the two groups, as just described, each rat underwent a preliminary test of one trial, followed by an interval of 10 minutes, followed by another trial, and so on, for a total of 4 trials in one day. […] In this preliminary test, the choice accuracy level, or ratio of correct choices made, co, to the number of number of trials in the test, no, was determined for each rat. […]
Three groups of animals (young, aging, and magnesium-treated aging rats) were used. […] Spatial working memory was assessed using a T-maze non-matching-to-place task. […] Spatial working memory was first assessed on an elevated T-maze. […]

[5] = diabetic patients, nearly 1 g of magnesium daily for 1 month; cited from earlier work
[6] = system: young (9-month old) and aged (25-month old) rats; details: food containing 2% magnesium oxide for 8 days, cited from earlier work

## CC12CC3CC(C)(C1)CC(N)(C3)C2 [memantine]
[1]
  reduction of the effects of AD on learning capacity, compared with aricept: better at reducing the effects of AD on learning capacity than aricept

## [Cl-].[Cl-].[Mg+2] [MgCl2, magnesium chloride]
[2]
  magnesium absorption rate at relatively high magnesium dosage: less desirable
[3]; aging rats (12-14 months old), 6 mg/kg MgCl2 from 8 months of age, single exposure, 10 minute retention interval (P<0.0001)
  novel object exploration preference: preferentially explored the novel object to the same extent as young rats
[3]; aging rats, 6 mg/kg MgCl2, single exposure, after 24 hours
  ability to distinguish novel versus familiar objects: lose there ability to distinguish novel versus familiar objects
[3]; aging rats, 6 mg/kg MgCl2, two training sessions, 24-hour retention interval
  preference for the novel object: retained a high level of preference
[4]; 2 and 5 min delays (p<0.05)
  spatial working memory performance with increased delay: significantly enhanced the performance of the aging rats
[4]; 15 sec delay (p<0.05)
  percentage of correct choices during training: performed significantly better from their first trials
[4]; after 8 days of training
  asymptotic choice accuracy level: 94%

## [O]=[Mg] [magnesium oxide]
[5]
  increase of serum magnesium level: about 10%
  metabolic control: only minor improvement in metabolic control
[6]
  side-effect: diarrhea and weight loss
[6]; gain transient
  cognitive function: some sign of improvement of cognitive function

From US20080249178A1, “MAGNESIUM COMPOSITIONS AND USES THEREOF FOR INCREASING LIFESPAN” (priority 2007, published 2008)
